Measurements: patent publication US6036958A, “Tsetse thrombin inhibitor” (Yale University, priority 1999, dated 2000)
No end group written: not given here.

B1: recombinant antistasin: from the leech Haementaria officinalis, potent and specific inhibitor of factor Xa (protein, UniProt P15358 18-136, looked up)
Antistasin: QGPFGPGCEEAGCPEGSACNIITDRCTCSGVRCRMHCPHGFQRSRYGCEFCKCRLEPMKATCDISECPEGMMCSRLTNKCDCKIDINCRKTCPNGLKRDKLGCEYCECRPKRKLIPRLS

Key:
[1] = tested on: restenosis following angioplasty; conditions: rabbits; cited from earlier work
[2] = tested on: ADP induced platelet aggregation; assay: Platelet aggregation assay, ADP induced; assay type: cell-based, human; conditions: purified TTI
Experimental: (§1) Platelet Aggregation Assay. Blood from a healthy human volunteer was collected by venipuncture, anticoagulated with 1/10 volume of 0.08 M trisodium citrate, and centrifuged at 150 g for 10 min. The platelet rich plasma (PRP) was withdrawn and acidified to pH 6.4 using 0.15 M citric acid^15. The PRP was then centrifuged at 370 g for 20 min and the supernatant discarded. The platelet pellet was resuspended in Tyrodes solution (pH 7.4) with 3.13% wt/vol trisodium citrate and counted in a Coulter counter (Coulter Electronics, Hialeah, Fla.). The concentration of platelets was adjusted to 3×10^4 /μl prior to use.

thrombin = thrombin (Homo sapiens, UniProt P00734); assay: Single stage chromogenic assay of thrombin inhibition (S-2238); assay type: biochemical; conditions: purified protein
Experimental: Thrombin Assays. A single stage chromogenic assay of thrombin inhibition was used to monitor SGE activity. 100 μl of thrombin, diluted to a concentration of 1 nM in 10 mM HEPES, pH 7.5 containing 0.1% bovine serum albumin and 150 mM NaCl (HBSA), was incubated with 50 µl of SGE, column fractions (diluted 1:1000 in HBSA), or purified TTI for 15 min at 25° C. in a 96 well microtiter plate. Following the addition of […], the initial rate (mOD/min) of substrate hydrolysis over 5 min was measured at 405 nm using a Vmax kinetic microplate reader (Molecular Devices, Palo Alto, Calif.). Results were expressed as percent inhibition of thrombin activity using the following formula:
Percent inhibition=1--(inhibited rate/uninhibited rate)×100

[3] = tested on: thrombin induced platelet aggregation; assay: Platelet aggregation assay, thrombin induced; assay type: cell-based; conditions: washed human platelets; TTI 0, 0.001, 0.5, 1.0 nM; thrombin 0.2 NIH U/ml
Experimental: as §1
To determine the effect of TTI on thrombin induced aggregation, 200 μl of washed platelets were warmed to 37° C. in a Born multi-channel aggregometer in the presence of increasing concentrations of purified TTI. Aggregation was then recorded following the addition of 20 μl of thrombin (Boehringer-Mannheim, Indianapolis, Ind.) at a final concentration of 0.2 NIH U/ml. The aggregometer was calibrated to 100% light transmission, ie 0% aggregation, using Tyrodes solution.

[4] = tested on: collagen induced platelet aggregation; assay: Platelet aggregation assay, collagen induced; assay type: cell-based, human; conditions: purified TTI
Experimental: as §1

| Molecule | reducing restenosis following angioplasty, compared with heparin [1] | effect on ADP induced aggregation [2] | inhibitory activity against thrombin (thrombin) | inhibition of platelet aggregation in response to thrombin [3] | effect on collagen induced aggregation [4] |
| --- | --- | --- | --- | --- | --- |
| tick anticoagulant peptide: from Ornithodoros moubata, potent and specific inhibitor of factor Xa (YNRLCIKPRDWIDECDSNEGGERAYFRNGKGGCDSFWICPEDHTGADYYSSYRDCFNACI; ends and bridges not checked; cysteine pairing not given here; UniProt P17726 1-60, looked up) [reference compound] | superior to heparin |  |  |  |  |
| TTI: low molecular weight polypeptide (about 3530 Da) purified from Glossina morsitans morsitans salivary glands; residues 19 to 50 of SEQ ID NO: 2 (GEPGAPIDYDEYGDSSEEVGGTPLHEIPGIRL) |  | no effect | potent, tight-binding inhibitor of thrombin | dose dependent inhibition of platelet aggregation | no effect |
| B1 | superior to heparin |  |  |  |  |
